According to ChEMBL document CHEMBL1136294, “Aryloxazolidinediones: identification of potent orally active PPAR dual alpha/gamma agonists” (Bioorg Med Chem Lett, 2003):

What was measured:
[1] = molecular target: T1, Peroxisome proliferator-activated receptor delta (Homo sapiens, UniProt Q03181)
T1 sequence (Q03181 whole entry): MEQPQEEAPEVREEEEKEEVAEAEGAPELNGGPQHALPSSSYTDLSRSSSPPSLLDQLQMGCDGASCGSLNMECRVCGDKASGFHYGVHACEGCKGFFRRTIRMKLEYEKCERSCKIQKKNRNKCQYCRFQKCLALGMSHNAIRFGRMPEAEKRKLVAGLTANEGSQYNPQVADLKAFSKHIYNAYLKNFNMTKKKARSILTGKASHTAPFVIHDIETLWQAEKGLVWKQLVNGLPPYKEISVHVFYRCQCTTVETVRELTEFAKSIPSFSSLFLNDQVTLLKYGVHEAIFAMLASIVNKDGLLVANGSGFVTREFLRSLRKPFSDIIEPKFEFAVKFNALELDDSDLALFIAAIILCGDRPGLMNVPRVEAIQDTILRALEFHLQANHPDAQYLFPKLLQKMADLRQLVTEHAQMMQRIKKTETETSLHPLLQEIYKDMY
Description: In vitro binding affinity was tested towards human Peroxisome proliferator activated receptor delta

[2] = molecular target: T1, Peroxisome proliferator-activated receptor delta; format: functional
Description: In vitro activity in human Peroxisome proliferator activated receptor delta-transactivation assay

Rattus norvegicus [3] = species on record: Rattus norvegicus; settings: in vivo
Description: Area under curve in SD rats

in vivo [4] = settings: Sprague-Dawley, rat, po
Description: Oral bioavailability in rat (Sprague-Dawley)

in vivo [5] = settings: Sprague-Dawley, rat, po, 2 mg/kg
Description: Clearance in Sprague-Dawley rats after 2mg/kg oral dose

[6] = molecular target: T2, Peroxisome proliferator-activated receptor alpha (Homo sapiens, UniProt Q07869); format: functional
T2 sequence (Q07869 whole entry): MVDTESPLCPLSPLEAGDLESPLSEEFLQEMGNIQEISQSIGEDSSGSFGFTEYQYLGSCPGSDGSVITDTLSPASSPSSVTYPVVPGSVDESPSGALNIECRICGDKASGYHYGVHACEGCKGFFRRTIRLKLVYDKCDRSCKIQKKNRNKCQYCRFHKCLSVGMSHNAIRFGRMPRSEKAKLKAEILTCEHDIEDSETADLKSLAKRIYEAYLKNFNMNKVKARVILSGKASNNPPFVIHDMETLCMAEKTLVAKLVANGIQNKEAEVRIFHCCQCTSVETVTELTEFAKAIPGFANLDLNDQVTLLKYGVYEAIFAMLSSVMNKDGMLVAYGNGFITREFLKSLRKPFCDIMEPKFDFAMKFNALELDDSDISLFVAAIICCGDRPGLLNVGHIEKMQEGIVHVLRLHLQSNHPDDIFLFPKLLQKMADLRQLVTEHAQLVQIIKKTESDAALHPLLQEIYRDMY
Description: In vitro activity in human Peroxisome proliferator activated receptor alpha-transactivation assay

[7] = molecular target: T2, Peroxisome proliferator-activated receptor alpha
Description: In vitro binding affinity was tested towards human Peroxisome proliferator activated receptor alpha

Rattus norvegicus [8] = species on record: Rattus norvegicus; settings: in vivo, po
Description: Area under curve for a 2-mpk po dose in SD rats

in vivo [9] = settings: Sprague-Dawley, rat
Description: Half life period in SD rats

| SMILES | IC50 [1] | EC50 [2] | other results |
| --- | --- | --- | --- |
| CCCc1cc(C=C2CCCCC2)ccc1OCCCOc1cccc(C2SC(=O)NC2=O)c1 (stereo unspecified) | > 50 µM | > 3 µM |  |
| CCCc1cc(C(=O)C2CCCCC2)ccc1OCCCOc1cccc(C2SC(=O)NC2=O)c1 (stereo unspecified) | > 50 µM | > 3 µM | AUC (Rattus norvegicus [3]): 0.07 µM; bioavailability (in vivo [4]): 7.8%; CL/F (in vivo [5]): 29.5 mL/min/kg |
| CCCc1cc(-c2ccccc2)ccc1OCCCOc1cccc(C2OC(=O)NC2=O)c1 (stereo unspecified) | 1.51 µM | > 3 µM |  |
| CCCc1cc(OC2CCCC2)ccc1OCCCOc1cccc(C2SC(=O)NC2=O)c1 (stereo unspecified) | 0.92 µM |  |  |
| CCCc1cc(-c2noc3ccccc23)ccc1OCCCOc1cccc(C2SC(=O)NC2=O)c1 (stereo unspecified) | 0.14 µM |  |  |
| CCCc1cc(C(=O)c2ccccc2)ccc1OCCCOc1cccc(C2SC(=O)NC2=O)c1 (stereo unspecified) | 0.17 µM | > 3 µM |  |
| CCCc1cc(C(=O)c2ccc(Cl)cc2)ccc1OCCCOc1cccc(C2SC(=O)NC2=O)c1 (stereo unspecified) | > 50 µM | > 3 µM |  |
| CCCc1cc(OC2CCCCCC2)ccc1OCCCOc1cccc(C2SC(=O)NC2=O)c1 (stereo unspecified) | > 50 µM |  |  |

The next lines start with results.

| IC50 [1] | EC50 [2] | SMILES | other results |
| --- | --- | --- | --- |
| > 50 µM | > 3 µM | CCCc1cc(C2CCC(F)(F)CC2)ccc1OCCCOc1cccc(C2OC(=O)NC2=O)c1 (stereo unspecified) |  |
| > 50 µM | > 3 µM | CCCc1cc(C2CCCCC2)ccc1OCCCOc1cccc(C2OC(=O)NC2=O)c1 (stereo unspecified) |  |
| > 50 µM | > 3 µM | CCCc1cc(OC2CCCCC2)ccc1OCCCOc1cccc(C2SC(=O)NC2=O)c1 (stereo unspecified) | AUC (Rattus norvegicus [3]): 0.3 µM; bioavailability (in vivo [4]): 10% |
| > 50 µM |  | CCCc1cc(C2CCOCC2)ccc1OCCCOc1cccc(C2OC(=O)NC2=O)c1 (stereo unspecified) |  |
| > 50 µM |  | CCCc1cc(C2CCC(O)CC2)ccc1OCCCOc1cccc(C2OC(=O)NC2=O)c1 (stereo unspecified) |  |
| > 50 µM | > 3 µM | CCCc1cc(C2CCC(C)(C)CC2)ccc1OCCCOc1cccc(C2OC(=O)NC2=O)c1 (stereo unspecified) |  |
| > 50 µM |  | CCCc1cc(C2CCC(=O)CC2)ccc1OCCCOc1cccc(C2OC(=O)NC2=O)c1 (stereo unspecified) |  |
| 3.85 µM |  | CCCc1cc(C2CCCC2)ccc1OCCCOc1cccc(C2OC(=O)NC2=O)c1 (stereo unspecified) |  |
| > 50 µM | > 3 µM | CCCc1cc(C2CCCCCC2)ccc1OCCCOc1cccc(C2OC(=O)NC2=O)c1 (stereo unspecified) |  |
| > 50 µM | > 3 µM | CCCc1cc(CC2CCCCC2)ccc1OCCCOc1cccc(C2SC(=O)NC2=O)c1 (stereo unspecified) |  |
| > 5 µM | > 3 µM | CCCc1ccccc1OCCCOc1cccc(C2OC(=O)NC2=O)c1 (stereo unspecified) | EC50 [6]: 53 nM; IC50 [7]: 80 nM; AUC (Rattus norvegicus [8]): 1.1 µM; bioavailability (in vivo [4]): 27%; half-life (in vivo [9]): 216 min |
